The values that follow come from patent US20250099400A1, “TERPENES FOR USE IN MODULATION OF A PHY[…]” (BUZZELET DEVELOPMENT AND TECHNOLOGIES LTD., priority 2022, published 2025).

≈ marks a conversion by molar mass, not a printed value.

T1 sequence (P21554 whole entry): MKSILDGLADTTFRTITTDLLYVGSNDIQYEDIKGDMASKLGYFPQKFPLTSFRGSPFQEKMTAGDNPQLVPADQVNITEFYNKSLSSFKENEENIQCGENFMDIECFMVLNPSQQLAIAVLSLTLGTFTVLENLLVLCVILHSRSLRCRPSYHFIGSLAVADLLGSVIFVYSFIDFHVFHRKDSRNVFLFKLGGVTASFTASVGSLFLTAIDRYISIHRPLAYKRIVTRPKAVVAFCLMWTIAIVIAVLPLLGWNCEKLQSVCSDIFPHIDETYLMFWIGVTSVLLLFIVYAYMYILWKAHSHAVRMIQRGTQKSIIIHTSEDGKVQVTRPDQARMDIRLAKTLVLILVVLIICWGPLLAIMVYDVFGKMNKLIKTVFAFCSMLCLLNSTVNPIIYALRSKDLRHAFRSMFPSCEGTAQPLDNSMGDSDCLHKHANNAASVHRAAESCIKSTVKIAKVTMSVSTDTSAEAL

The first data set concerns the target T1, CB1 receptor (Homo sapiens, UniProt P21554).
T1 construct: expressed in transfected cells; host or cells: Xenopus laevis oocytes injected with in vitro transcribed cRNA
As to the kind of experiment: CB1 receptor-activated GIRK currents in Xenopus oocytes (two-electrode voltage clamp). In kind it is cell-based. As to conditions: THC concentrations each supplemented with terpene at a weight/weight ratio of 1/10, compared with THC alone. On the procedure: cDNA plasmids of the two subunits of the G protein-activated inwardly rectifying K^+ channel (GIRK) (GIRK1 and GIRK2), the CB1 receptor, the CB2 receptor, and the α subunit of the G-protein (Gαi3) were linearized with the appropriate restriction enzymes. The linearized plasmids were transcribed in vitro using a standard procedure.
Oocytes were isolated from female adult X. laevis anesthetized (with 1 g/L MS-222) and incubated in NDE96 solution composed of ND96 (in mM: 96 NaCl, 2 KCl, 1 CaCl2, 1 MgCl2, 5 Hepes, with pH adjusted to 7.5 with NaOH) with the addition of 2.5 mM Na^+ pyruvate, 100 units/ml penicillin, and 100 μg/ml streptomycin (16). The isolated oocytes were injected with the relevant cRNAs: cRNAs of CB1 receptor and CB2 receptor (2 ng) and GIRK1 and GIRK2 (200 pg each) were injected. In addition, cRNA of Gαi3 (1000 pg) was injected to decrease the basal GIRK current (IK) and to improve the relative activation by the agonist.
Currents were measured 3-5 days after cRNA injection and were recorded using the standard two-electrode voltage clamp technique (Axoclamp 2B amplifier, Axon Instruments, Foster City, CA).
Each oocyte was placed in a recording bath containing ND96 solution and was impaled with two electrodes pulled from 1.5-mm Clark capillaries (Warner instruments, Hamden, CT). Both electrodes were filled with a 3M KCI solution and the electrode resistance was between 1 and 5 MΩ. The CB1 receptor-mediated GIRK and the CB2 receptor-mediated GIRK currents were measured in 24 mM K^+ solution (in mM: 72 NaCl, 24 KCl, 1 CaCl2, 1 MgCl2, 5 Hepes, with pH adjusted to 7.5 with KOH). Ba^+2 (1 mM) was used to block the currents in order to verify that the measured currents were indeed mediated by GIRK channels.
The dose response curves were fitted by equation 1:
Y=Bottom+X*(Top-Bottom)/(EC50+X), (1)
The responses evoked in the same oocyte by either THC and\or terpenes measurements, were normalized to this reference value.
The Xenopus oocytes functional expression system was used to test the possibility that the presence of various terpenes affects the activation of the CB1 receptor, as depicted schematically in FIG. 1A. To this end, Xenopus oocytes were injected with cRNAs of proteins involved in the pathway leading to activation of K^+ currents by CB1 receptor via βγ subunits of the G-proteins: The CB1 receptor, the two subunits of the GIRK channel (GIRK1 and GIRK2), and the Gαi3 subunit.
First, the dependence of THC-induced K^+ current (ITHC) on THC concentration (dose-response, DR) was measured. The oocyte was voltage-clamped to −80 mV in a low K^+ (2 mM K^+) solution, ND96. Basal GIRK current (IK) was developed upon replacement of the ND96 by the 24 mM K^+solution. This current represents the basal activation of GIRK channel by endogenous By subunits present in the oocytes. Then, five different concentrations of THC were applied sequentially in ascending order giving rise to ITHC. This current was terminated upon washout of THC. Employing this basic experimental protocol, a full DR curve was constructed.
In order to compare between oocytes, ITHC at any particular THC concentration was normalized to ITHC obtained at a 10 μM THC, defined as the reference response, at this same oocyte.
For orientation: Two-electrode voltage clamp holds a large cell at a set potential and records current.
On to `C=CC(C)(O)CCC=C(C)C` (racemic) [linalool], for which the “effect of terpene addition on the potency of THC in CB1 receptor activation” value (from here on “effect of terpene addition”) is listed as “significantly enhances the potency of THC”. Same read-out and setting: the result for `C=C(C)[C@H]1CC=C(C)CC1` [limonene, limonene-D] reads “significantly enhances the potency of THC”; that for `C=C1CCC2(C(C)C)CC12` (stereo not drawn) [sabinene], “significantly enhances the potency of THC”; that for `CC(C)=CCC/C(C)=C/CO` [geraniol], “significantly enhances the potency of THC”.

Regarding `C=C1CCC2CC1C2(C)C` (stereo not drawn) [beta pinene, β-pinene], the “effect of terpene addition” value is “significantly enhances the potency of THC”. As to `C=CC(C)=CCC=C(C)C` [ocimene], the “effect of terpene addition” value is “significantly enhances the potency of THC”. As for `CC1(C)C2CCC1(C)C(O)C2` (stereo not drawn) [borneol], the “effect of terpene addition” value was “significantly enhances the potency of THC”.

Tested on in the next data set: not listed separately
The experiment in a line: Solubility in the test solutions. As to conditions: 24 mM K+ solution, saline or isotonic, kinetic from dmso stock.
The solubility is how much of the substance goes into solution per volume. A high value points to much dissolved substance. Turning to `CCCCCc1cc(O)c2c(c1)OC(C)(C)[C@@H]1CCC(C)=C[C@@H]21` [THC, tetrahydrocannabinol, reference compound], the solubility worked out at 10 µM (≈ 3.14 µg/mL).

The data set is the same for the next values; noted with them: CB1 dose-response experiment; excluded from analysis.
Take `CC(C)=CCC[C@](C)(O)C1CC=C(C)CC1` (stereo partly drawn) [bisabolol]: the “solubility relative to the tested concentration range” value is on record as “below the tested concentration range”. Still for that read-out and setting: in the case of `C=CC(C)(O)CCC=C(C)CCC=C(C)C` (stereo not drawn) [nerolidol] it was “below the tested concentration range”; in that of `C/C1=C\CC/C(C)=C/CC(C)(C)/C=C/C1` [humulene], “below the tested concentration range”; in that of `C=C1CC/C=C(\C)CC[C@@H]2[C@@H]1CC2(C)C` [β-caryophyllene], “below the tested concentration range”.
